The values that follow come from patent publication US4868193A, “Styryl tetrazoles and anti-allergic use thereof” (Rorer Pharmaceutical Corporation, priority 1986, dated 1989).

Counter-ions that a name gives are not always drawn. Like-named read-outs stand apart in the source and are kept apart here.

In experiment [1] the test system is LTD4 (leukotriene D4)-induced contraction of guinea pig peripheral lung strips. Description: In vitro assay to identify leukotriene antagonist compounds (guinea pig lung strips), vs LTD4. In kind it is cell-based. Conditions: 50% reduction of muscle response, read-out: In Vitro I50. The method, then: (§1) In Vitro Assay to Identify Leukotriene Antagonist Compounds […] Peripheral strips of guinea pig lungs are prepared and hung in tissue baths according to the procedure described by Drazen et al. Male guinea pigs (Charles River, 250-400 g) are sacrificed by cervical dislocation and their lungs rapidly removed. The individual lobes are dissected free and rinsed in Assay Buffer which is continuously aerated with 95% oxygen-5% carbon dioxide. After the lobes are extensively rinsed, a strip of lung tissue, approximately 2 mm thick and 5-8 cm long, is cut off the sharpest and most peripheral portion of each lobe. The peripheral edge is cut almost completely around the outside of the lobe so that a U-shaped strip is obtained. These strips are rinsed in Assay Buffer and then connected with surgical silk thread to the support rods from the tissue baths. The rods are adjusted in the baths and the strips connected to the pressure transducers. The tissue baths are aerated with 95% oxygen-5% carbon dioxide and maintained at 37°. The tension on these strips is adjusted to 500 mg with "re-zeros" the pen deflection on the previously calibrated polygraph. Tissues are initially washed with fresh buffer every 5-10 minutes for about 30 minutes. Thereafter, tissues were washed with fresh assay buffer at least every 20 minutes. Normalizing Muscle Contractions and Testing of Compounds 1. After the tissues have been repeatedly washed and allowed to equilibrate in the tissue bath, they are challenged with 1μM histamine. [Usually 10 μl of a 1 mM stock solution are added to the baths.] After maximum concentrations have been obtained, then tissues are washed and allowed to relax back to baseline tension. This histamine challenge procedure is repeated at least 1 or 2 more times to obtain a repeatable control response. […] Leukotriene (usually 0.4 units/ml) is added after the desired preincubation time and the muscle response is recorded. […] From this curve the concentration responding to the 50% reduction of the muscle concentration is calculated as the ^I 50 value. […]

Experiment [2] relates to LTC4-induced contraction of guinea pig peripheral lung strips. Description: In vitro assay to identify leukotriene antagonist compounds (guinea pig lung strips), vs LTC4. In kind it is cell-based. The note with it: Cavia porcellus, 50% reduction of muscle response, read-out: In Vitro I50. The method, then: as §1
Experiment [3] relates to LTD4 (leukotriene D4)-induced cutaneous wheal formation. The experiment in a line: Leukotriene D4-induced wheal formation in the guinea pig. Further details: species or system guinea pig (male Hartley). Conditions: Cavia porcellus, po, 1 h, p.o., 0.1 μg LTD4 intradermally, given one hour before Evans blue dye, read-out: In Vivo LTD4 Wheal, ED50. The procedure:
Leukotriene D4 -Induced Wheal formation in the Guinea Pig Leukotriene D4 (LTD4) increases vascular permeability in guinea pig skin. LTD4 antagonists are tested for oral activity in a model of LTD4 -induced cutaneous wheal formation in the guinea pig. Male Hartley guinea pigs are given either vehicle (polyethylene glycol 400) or test compound by gauge one hour before intravenous injection of 1% Evans blue dye. Immediately after dye injection, 0.1 μg of LTD4 (in a volume of 0.1 ml) is injected intradermally at two separate dorsal sites. Thirty minutes later, the animals are sacrificed by carbon dioxide asphyxiation, the dorsal skins reflected, and glued wheal areas measured. Mean values±standard error for wheal areas in vehicle- and drug-treated groups are determined. Inhibition of wheal formation is calculated by comparison of drug-treated and control groups.

With `N#CC=Cc1cccc(OCc2ccc3ccccc3n2)c1` [Example 1B, 3-(Quinolin-2-yl-methoxy)-cinnamylnitrile], the figures for the IC50 in experiment [1] (Cavia porcellus) and in experiment [2] were 650 nM and 1200 nM, respectively.
Turning to `C(=Cc1nnn[nH]1)c1ccc(OCc2ccc3ccccc3n2)cc1` [Example 2C, 5-[4-(Quinolin-2-yl-methoxy)styryl]-tetrazole hydrochloride], the IC50 in experiment [2] is 500 nM.
Consider `C(=Cc1nnn[nH]1)c1cccc(OCc2ccc3ccccc3n2)c1.Cl` [Example 1C, 5-[3-(Quinolin-2-yl-methoxy)styryl]-tetrazole hydrochloride], for which the figures for the IC50 in experiment [1] (hydrochloride), in experiment [1] (Cavia porcellus) and in experiment [2] were 80 nM, 60 nM and 150 nM, respectively. In experiment [3], the ED50 turned out to be 22 mg/kg.

One may read the ED50 as the dose that gives a 50% effect, or the effect in half of the subjects.
